In test [1] the target is T1, GBS 0582 (Streptococcus agalactiae, UniProt Q8E126).
T1 sequence (Q8E126 1-311): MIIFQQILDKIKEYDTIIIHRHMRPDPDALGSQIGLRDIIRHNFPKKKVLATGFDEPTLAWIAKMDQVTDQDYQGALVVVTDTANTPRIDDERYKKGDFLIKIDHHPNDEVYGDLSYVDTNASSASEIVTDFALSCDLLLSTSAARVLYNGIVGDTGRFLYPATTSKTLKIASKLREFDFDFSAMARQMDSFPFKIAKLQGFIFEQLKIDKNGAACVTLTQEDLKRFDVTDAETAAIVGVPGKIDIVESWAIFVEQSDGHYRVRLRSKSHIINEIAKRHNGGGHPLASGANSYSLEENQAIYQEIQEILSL
Kind of test: biochemical. On the set-up: species or system S. agalactiae.

For test [2], the target named is GBS 0307 (Streptococcus agalactiae, UniProt Q8E1N5, T550A). Kind of test: biochemical.
Sequence of GBS 0307 (Q8E1N5 whole entry T550A): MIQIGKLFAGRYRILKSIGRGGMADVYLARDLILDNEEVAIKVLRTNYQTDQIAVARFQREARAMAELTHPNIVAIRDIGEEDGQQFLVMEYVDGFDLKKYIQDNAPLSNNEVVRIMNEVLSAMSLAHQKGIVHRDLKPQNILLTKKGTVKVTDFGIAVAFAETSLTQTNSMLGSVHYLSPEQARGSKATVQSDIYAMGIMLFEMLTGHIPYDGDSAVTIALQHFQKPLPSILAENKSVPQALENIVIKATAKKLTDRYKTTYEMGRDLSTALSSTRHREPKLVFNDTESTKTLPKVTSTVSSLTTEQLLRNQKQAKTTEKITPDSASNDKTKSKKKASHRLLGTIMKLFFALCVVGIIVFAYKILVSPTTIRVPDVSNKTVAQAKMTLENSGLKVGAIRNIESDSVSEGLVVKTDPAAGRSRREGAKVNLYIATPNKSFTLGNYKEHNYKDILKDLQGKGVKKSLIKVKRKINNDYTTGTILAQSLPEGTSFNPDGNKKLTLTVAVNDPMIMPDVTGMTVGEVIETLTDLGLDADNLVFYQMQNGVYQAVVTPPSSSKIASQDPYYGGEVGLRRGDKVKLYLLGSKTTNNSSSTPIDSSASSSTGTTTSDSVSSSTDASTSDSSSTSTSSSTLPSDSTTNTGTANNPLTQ
Test [3] concerns S. agalactiae NEM316 wild type strain. Kind of test: Sensitivity to colistin (MIC) of the wild type strain.
Method: Screening for sensitivity to cationic peptide colistin and cell wall defect of the mutant library. The S. agalactiae mutants were grown TH-Kn in 96-wells microplates over-night. Bacteria were then diluted to 1:1000 and each dilution was dispatched into two microplates. In one microplate 50 μl of TH was added, whereas 50 μl of 512 μg/ml colistin (Sigma) or 2 μg/ml novobiocin (Sigma) was added in the other thus obtaining final concentrations of 256 μg/ml and 1 μg/ml, respectively. Microplates were incubated overnight at 37° C. OD600 of microplates was read on a Multiskan Ex apparatus (Thermo).

Where two headings read alike, the source gives them in different places.

What is called IC50 is the concentration that gives 50% inhibition. As to `Nc1ncnc2c1ncn2[C@@H]1O[C@H](COP(=O)(O)OP(=O)(O)O)[C@@H](O)[C@H]1O` [ADP], in test [1] (read-out: IC50), the half-maximal inhibitory concentration (IC50) turned out to be 405 µM.

The molecule `Nc1ncnc2c1ncn2[C@@H]1O[C@H](COP(=O)(O)O)[C@@H](O)[C@H]1O` [AMP, Adenosine monophosphate] came in with an IC50 in test [1] of 235 ± 45 µM.

In test [2], `CN[C@@H]1C[C@H]2O[C@@](C)([C@@H]1OC)n1c3ccccc3c3c4c(c5c6ccccc6n2c5c31)C(=O)NC4` [Staurosporine] returned an IC50 of 0.023 ± 0.008 µM.

In the case of colistin, in test [3], the CMI was ≤ 1024 µg/mL.
